This is an account of results in publication PMC8311653, “Design, Synthesis, In Vitro and In Vivo Characterization of Selective NKCC1 Inhibitors for the Treatment of Core Symptoms in Down Syndrome” (Journal of Medicinal Chemistry, 2021).

Values after ≈ are worked out from the molar mass of the structure shown.

Data set [1] is described as follows: In vitro mouse plasma stability. It counts as in vitro ADME. To be noted: mouse plasma at 37 °C; incubated at 5 μM (final DMSO 0.1%); read-out: t1/2 plasma.
The nature of data set [2]: In vitro metabolic stability in mouse liver microsomes. To be noted: tissue homogenate, pH 7.4. How it is done: 1. Aqueous kinetic solubility. […]
3. In vitro mouse microsomial stability. […]
microsomes (Sekisui Xenotech, LCC), 0.1M Tris-HCl buffer (pH 7.4), and 10% DMSO. The final […]
After pre-incubation, the cofactors (NADPH, G6P, G6PDH, MgCl2 pre-dissolved in 0.1M Tris-HCl) were added to the incubation mixture and the incubation was continued at 37 °C for 1h. At each time point (0, 5, 15, 30, 60 min), 30µL of incubation mixture was diluted with 200 µL cold acetonitile spiked with 200 nM of warfarin as internal standard, followed by centrifugation at 3500 g for 30 min. The supernatant was further diluted with H2O (1:1) for analysis.
An aliquot of 200 µl of the supernatant was removed, and the concentration of the test compound was […]
quantified by LC-MS/MS. The percentage of the test compound remaining at each time point relative […]
to t=0 was calculated. The half-lives (t½) were determined by a one-phase decay equation using a […]
non-linear regression of compound concentration vs time.
(Microsomes from liver hold many membrane-bound enzymes, among them those of drug oxidation.)

For the next data set, the target named is T1, NKCC1 (Mus musculus, UniProt P55012).
T1 construct: primary neuronal cultures of dissociated hippocampal neurons were prepared from E18 C57BL/6J mice; endogenous in cells; host or cells: primary hippocampal neurons from E18 C57BL/6J mice, 3 DIV
T1 sequence (P55012 1-1205): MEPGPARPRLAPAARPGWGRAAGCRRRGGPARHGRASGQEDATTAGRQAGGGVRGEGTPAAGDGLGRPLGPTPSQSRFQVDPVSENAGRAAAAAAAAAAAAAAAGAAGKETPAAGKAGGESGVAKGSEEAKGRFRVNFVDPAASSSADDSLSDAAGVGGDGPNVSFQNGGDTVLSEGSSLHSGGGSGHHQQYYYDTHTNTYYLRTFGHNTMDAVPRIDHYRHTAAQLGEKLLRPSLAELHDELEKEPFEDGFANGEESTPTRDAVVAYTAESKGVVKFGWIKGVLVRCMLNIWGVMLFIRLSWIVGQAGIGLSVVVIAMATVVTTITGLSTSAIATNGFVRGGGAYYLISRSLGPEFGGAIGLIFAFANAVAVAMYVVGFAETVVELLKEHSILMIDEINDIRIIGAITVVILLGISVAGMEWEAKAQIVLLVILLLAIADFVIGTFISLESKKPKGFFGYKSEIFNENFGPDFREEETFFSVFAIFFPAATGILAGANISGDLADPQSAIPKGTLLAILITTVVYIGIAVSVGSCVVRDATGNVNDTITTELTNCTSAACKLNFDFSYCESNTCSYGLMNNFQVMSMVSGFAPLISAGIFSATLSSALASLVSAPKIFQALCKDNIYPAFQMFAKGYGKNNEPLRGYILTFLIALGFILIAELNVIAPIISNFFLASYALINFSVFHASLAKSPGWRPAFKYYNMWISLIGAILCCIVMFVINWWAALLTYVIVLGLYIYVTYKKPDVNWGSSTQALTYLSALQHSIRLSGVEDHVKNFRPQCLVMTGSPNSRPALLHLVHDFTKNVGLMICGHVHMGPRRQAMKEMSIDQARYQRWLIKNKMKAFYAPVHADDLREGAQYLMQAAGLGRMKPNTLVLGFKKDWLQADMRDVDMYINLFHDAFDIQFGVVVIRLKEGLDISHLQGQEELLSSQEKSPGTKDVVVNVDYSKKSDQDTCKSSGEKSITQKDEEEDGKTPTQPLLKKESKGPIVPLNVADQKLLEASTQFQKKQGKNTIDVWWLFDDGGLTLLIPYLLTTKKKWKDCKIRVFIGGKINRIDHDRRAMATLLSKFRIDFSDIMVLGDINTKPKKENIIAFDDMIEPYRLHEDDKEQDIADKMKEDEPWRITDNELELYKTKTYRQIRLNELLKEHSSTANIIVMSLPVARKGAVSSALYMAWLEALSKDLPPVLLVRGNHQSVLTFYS
The data set is described as follows: Ca2+ influx assay in immature primary neuronal cultures (indirect measure of NKCC1 inhibition). It counts as cell-based. The following applies: cultured neurons, 3 DIV. How it is done:
To perform the Ca^2+-influx assay, primary neuronal cultures of dissociated hippocampal neurons were prepared from E18 C57BL/6J mice (Charles River) as previously described[56] and plated in 96-well black-walled, clear-bottomed plates coated with poly-L-lysine (Sigma; 0.1 mg/mL in 100 mM borate buffer, pH 8.5) at a density of 30,000 cells per well. Neurons were maintained in neurobasal medium supplemented with 2% B-27 supplement, 0.5 mM glutamine, 50 U/mL of penicillin, and 50 μg/mL of streptomycin (all from Gibco). The cells were incubated at 37 °C and 5% CO2 until DIV 3 for the Ca^2+ influx assay.
At 3 DIVs, neurons were loaded with 2.5 μM of the Ca^2+-sensitive day Fluo4-AM (Invitrogen) in extracellular solution (145 mM NaCl, 5 mM KCl, 10 mM HEPES, 5.55 mM glucose, 1 mM MgCl2, and 2 mM CaCl2, pH 7.4). After 15 min, cells were washed twice with extracellular solutions and treated with bumetanide (as a positive control), DMSO (as a negative control), or each of our compounds at 10 μM or 100 μM, in extracellular solution for 15 min. Plates were then loaded onto a Spark (Tecan) multiplate reader equipped with an automatic liquid injector system, and Fluo4 fluorescence was recorded with excitation at 485 nm and emission at 535 nm. For each well, fluorescence was first recorded for 20 s of the baseline and for 20 s after delivery of GABA (100 μM). To evaluate neuronal viability, fluorescence was recorded for an additional 20 s after delivery of a depolarizing KCl stimulus (90 mM final concentration in wells). To represent the fluorescent traces in time, we normalized the fluorescence value for each time point to the average of the fluorescence value for the first 20 s of the baseline (ΔF/F0). To quantify the average effects as represented by the bar plots, we measured the maximum peak increase in ΔF/F0 fluorescence upon GABA application normalized over the maximum peak increase in ΔF/F0 fluorescence upon KCl application. We then presented in the figures all the data as a percentage of the fluorescence increase versus the value of the control DMSO.

Data set [3] can be described thus: Aqueous kinetic solubility in PBS pH 7.4. To be noted: phosphate buffered saline (PBS); aqueous kinetic solubility from 10 mM DMSO solution in PBS pH 7.4; target concentration 250 μM (final DMSO 2.5%). It counts as physicochemical. How it is done:
1. Aqueous kinetic solubility.
30 µL aliquots of 10 mM DMSO stock solution of the test compound were incubated in Phosphate
Buffered Saline (PBS) at pH 7.4 at 25°C for 24h. After centrifugation the dissolved compound in the
supernatant was quantified by LC-MS/MS.
Aqueous kinetic solubility was determined by UV quantification at
215 nm. […]

Broadly, the inhibition is the relative decrease from the control value, in per cent. Higher therefore signals a response far below the control. The term solubility denotes the concentration that dissolves in the medium under given conditions. Read a high solubility as a readily soluble substance. In the case of `CNS(=O)(=O)c1cc(C(=O)O)ccc1NCCCCCCCC(F)(F)F` [Compound 32, 3-(-N,N-Methylsulfamoyl)-4-(8,8,8-trifluorooctylamino)benzoic Acid], the half-life at 5 μM in data set [1] is greater than 2 h; in data set [2], greater than 1 h. On NKCC1, this compound registered an inhibition at 10 µM of 9.3 ± 1.9%. Moreover, the inhibition at 100 µM against NKCC1 (100 μM) amounted to 40.4 ± 4.8%. In data set [3], this compound gave a solubility at 24 h of 242 µM (≈ 95.9 µg/mL).

In the case of `O=C(O)c1ccc(NCCCCCCCC(F)(F)F)c(S(=O)(=O)N2CCCC2)c1` [Compound 33, 3-Pyrrolidin-1-ylsulfonyl-4-(8,8,8-trifluorooctylamino)benzoic Acid], the half-life at 5 μM in data set [1] was greater than 2 h; in data set [2] it was greater than 1 h. Also, on NKCC1, the inhibition at 10 µM is 31.7 ± 4.1%. This compound also yielded an inhibition at 100 µM on NKCC1 (100 μM) of 50.9 ± 6.7%. The same compound yielded a solubility at 24 h in data set [3] of 66 µM (≈ 28.8 µg/mL).

On to `O=C(O)c1ccc(NCCCCCCCC(F)(F)F)c(S(=O)(=O)N2CCCCC2)c1` [Compound 34, 3-(1-Piperidylsulfonyl)-4-(8,8,8-trifluorooctylamino)benzoic Acid], for which the half-life at 5 μM in data set [1] was greater than 2 h; in data set [2] it was greater than 1 h. Besides, at NKCC1, 10 µM produced 49.2 ± 4.5% inhibition. This compound also gave a solubility at 24 h in data set [3] of 13 µM (≈ 5.86 µg/mL).

With `O=C(O)c1ccc(NCCCCCCCC(F)(F)F)c(S(=O)(=O)N2CCOCC2)c1` [Compound 35, 3-Morpholinosulfonyl-4-(8,8,8-trifluorooctylamino)benzoic Acid], the half-life at 5 μM in data set [1] was greater than 2 h. The half-life at 5 μM in data set [2] was greater than 1 h. Also, 10 µM produced 16.5 ± 2.7% inhibition at NKCC1. On NKCC1 (100 μM), the “Inhibition 100 μM Ca2+ influx (%)” value stood at 67.7 ± 2.8% and the inhibition at 100 µM turned out to be 67.8 ± 2.8%. Moreover, in data set [3], the solubility at 24 h is 244 µM (≈ 110 µg/mL).

`O=C(O)c1ccc(NCCCCCCCC(F)(F)F)c(S(=O)(=O)NC2CCCC2)c1` [Compound 36, 3-(-N-Cyclopentylsulfamoyl)-4-(8,8,8-trifluorooctylamino)benzoic Acid]: the half-life at 5 μM was greater than 2 h in data set [1] and greater than 1 h in data set [2]. The compound also had an inhibition at 10 µM on NKCC1 of 45.3 ± 5.3%. Also, the concentration in solution in data set [3] (solubility at 24 h) came to 223 µM (≈ 100 µg/mL).

`O=C(O)c1ccc(NCCCCCCCC(F)(F)F)c(S(=O)(=O)NC2CCCCC2)c1` [Compound 37, 3-(-N-Cyclohexylsulfamoyl)-4-(8,8,8-trifluorooctylamino)benzoic Acid]: the half-life at 5 μM in data set [1] was greater than 2 h; in data set [2] it was greater than 1 h. The compound also came in with an inhibition at 10 µM at NKCC1 of 49.5 ± 4.5%. This compound also came in with a solubility at 24 h in data set [3] of 9 µM (≈ 4.18 µg/mL).

For the compound `O=C(O)c1ccc(NCCCCCCCC(F)(F)F)c(S(=O)(=O)NC2CCOCC2)c1` [Compound 38, 3-(N-(Tetrahydro-2H-pyran-4-yl)sulfamoyl)-4-((8,8,8-trifluorooctyl)amino)benzoic Acid], the figures for the half-life at 5 μM in data set [1] and in data set [2] were greater than 2 h and greater than 1 h, respectively. For the same compound, at 10 µM the inhibition against NKCC1 was 7.1 ± 2.2%. On NKCC1 (100 μM), this compound came in with an inhibition at 100 µM of 36.2 ± 3.4%. This compound had a solubility at 24 h in data set [3] of 244 µM (≈ 114 µg/mL).

For `CN(C)S(=O)(=O)c1cc(C(=O)O)c(Cl)cc1NCCCCCCCC(F)(F)F` [Compound 39, 2-Chloro-5-(N,N-dimethylsulfamoyl)-4-((8,8,8-trifluorooctyl)amino)benzoic Acid], the half-life at 5 μM in data set [1] is greater than 2 h; in data set [2] it was greater than 1 h. Besides, the inhibition at 10 µM against NKCC1 is 19.4 ± 2.8%. The inhibition at 100 µM on NKCC1 (100 μM) is 59.6 ± 3.1%. Moreover, the concentration in solution in data set [3] (solubility at 24 h) was 241 µM (≈ 107 µg/mL).

Consider `COc1cc(NCCCCCCCC(F)(F)F)c(S(=O)(=O)N(C)C)cc1C(=O)O` [Compound 41, 5-(N,N-Dimethylsulfamoyl)-2-methoxy-4-((8,8,8-trifluorooctyl)amino)benzoic Acid], for which the values for the half-life at 5 μM in data set [1] and in data set [2] were greater than 2 h and greater than 1 h, respectively. This compound returned an inhibition at 10 µM against NKCC1 of 14.2 ± 2%. In addition, 100 µM produced 45.7 ± 4.5% inhibition against NKCC1 (100 μM). For the same compound, the solubility at 24 h in data set [3] amounted to 188 µM (≈ 82.8 µg/mL).

As to `CCOc1cc(NCCCCCCCC(F)(F)F)c(S(=O)(=O)N(C)C)cc1C(=O)O` [Compound 42, 5-(N,N-Dimethylsulfamoyl)-2-ethoxy-4-((8,8,8-trifluorooctyl)amino)benzoic Acid], the half-life at 5 μM in data set [1] is greater than 2 h; in data set [2], greater than 1 h. The compound also displayed an inhibition at 10 µM at NKCC1 of 13.4 ± 1.1%. On NKCC1 (100 μM), at 100 µM the inhibition was 46.6 ± 3.8%. The concentration in solution in data set [3] (solubility at 24 h) was 43 µM (≈ 19.5 µg/mL).

Regarding `CN(C)S(=O)(=O)c1cc(C(=O)O)c(OC2CCCC2)cc1NCCCCCCCC(F)(F)F` [Compound 43, 2-(Cyclopentyloxy)-5-(N,N-dimethylsulfamoyl)-4-((8,8,8-trifluorooctyl)amino)benzoic Acid], the half-life at 5 μM was greater than 2 h in data set [1] and 0.55 h in data set [2]. The same compound registered an inhibition at 10 µM at NKCC1 of 27.4 ± 7%. This compound returned a solubility at 24 h in data set [3] of 11 µM (≈ 5.44 µg/mL).
